From publication PMC9519552, “Activation of the human insulin receptor by non-insulin-related peptides” (Nature Communications, 2022)
Where two headings read alike, the source gives them in different places. Positions of bridges follow the written chain, without caps; N, C: chain ends. Non-standard residues stand in square brackets, D forms with d. Residues, ends and D or L forms follow the SMILES beside them. *: point of attachment. X1 = NCc1ccc(CC(=O)*)cc1; PhAc = O=C(Cc1ccccc1)*; Aib = CC(C)(N)C(=O)O

Experiments:
human IR-A (holoIR-A) = target: T1, human IR-A (holoIR-A) (Homo sapiens, UniProt P06213); assay: holoIR-A competitive radioligand binding assay (scintillation proximity assay); conditions: for affinity for hIR (in words): comparable to that of BHI; for Ki: primary peptide set, mean of 3 runs, read-out: IRA Binding Ki Mean
T1 construct: expressed in transfected cells; host or cells: HEK293 (ATCC #CRL-1573), stably transfected; membrane preparation
In short: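 Membranes from HEK293 cells stably expressing C9-tagged human IR-A were used in a WGA-bead SPA competition assay in 50 mM Tris-HCl pH 7.5, 150 mM NaCl, 0.1% fatty-acid-free BSA. Ten-point 3-fold dilutions were incubated 10 h at room temperature before scintillation counting. Percent specific inhibition was calculated after nonspecific-binding correction, from three independent runs.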

[1] = target: T2, human holoIR-A over-expressed in HEK293 cells (Homo sapiens, UniProt P06213); assay: holoIR-A auto-phosphorylation assay (ELISA); format: cell-based; conditions: for weaker activity than BHI in an hIR autophosphorylation assay: relative to biosynthetic human insulin
T2 construct: expressed in transfected cells; host or cells: HEK293, stably transfected
Protocol: Phosphorylation was quantified using an ELISA technique. Ninety-six well, flat-bottom microplates (Greiner Bio-One) were pre-coated with 2 µg mL^−1 anti-C9 monoclonal antibody (Rho 1D4; University of British Columbia)[27] in 20 mM sodium carbonate, pH 9.6, at 4 °C for overnight prior to the assay. On the assay day, plates were washed 3× with 0.1% Tween in 50 mM Tris Buffer Saline, pH 7.5 (TBST), and then blocked for greater than 1 h at room temperature (RT) with 1% BSA (Sigma) in TBST.
Stably transfected HEK293 cells over-expressing human holoIR-A containing a C-terminal C9 epitope tag ([…]), were plated at 6 × 10^4 cells per well serum-starved using 0.1% BSA in DMEM (Gibco) for overnight at standard tissue culture condition. […] After a 15-min incubation in lysis buffer at 4 °C, the lysate was transferred to anti-C9 antibody coated capture plate (Rho 1D4; University of British Columbia)[27]. […] After a 1 h incubation at room temperature, the secondary antibody was removed by washing 3× with TBST. Signal detection occurred with the addition of TMB, an HRP substrate (Pierce). After 5–10 min, the reaction was stopped by adding an equal volume of 2 M H2SO4, and the absorbance readings at 450 nm (A450) were recorded using a Envision plate reader (PerkinElmer). Samples were tested in three independent assay runs on three different days.
Percent specific response (y-axis) was plotted versus the log concentration of compound (x-axis) using Prism Version 9.3.1 (GraphPad Software). Individual measurements are provided as Source Data.

[2] = test system: [holoIR-A]-expressing IM-9 human lymphoblast cells; assay: holoIR-A accelerated dissociation assay of pre-bound 125I-insulin; format: binding; conditions: IM-9 cells, 1:40 dilution, 16 °C, 30 min; n = 3
Protocol: Ice-cold 15-25 pM ^125I-insulin solution was added to IM-9 cells and incubated at 4 °C for 2.5 h for pre-bound experiments. […] Following receptor and ^125I-insulin pre-bound, the mix was quickly centrifugated and supernatant was removed. The bound ^125I-insulin and IM-9 cells were then resuspended with 16 °C pre-equilibrated HBB, pH 7.6. The ^125I-ligand/IM-9 cell mixture was aliquoted to cold compounds at 1:40 ratio, respectively. The reactions were incubated at 16 °C for 30 min to allow dissociation of prebound ^125I-insulin and then harvested by centrifugation and aspiration of the supernatant. The radioactivity of cell pellets was determined by gamma counter (Perkin Elmer). Samples were tested in three independent assay runs on three different days. Individual measurements are provided as Source Data.

[3] = target: the molecule itself; assay: cryo-EM structure; IM459-complexed hIR-A^ecto, eluted with IM459 from an insulin-affinity column and purified by SEC in TBSA; focussed refinement to ca 5.0 Å
[4] = primary peptide set, mean of 3 runs, read-out: hIRA Phosph EC50 Mean
[5] = Fig. 1b, HEK293 hIR-A cells, 1 h 37 °C, ELISA, errors given as SEM, n = 3 independent replicates, read-out: Auto-phosphorylation constant EC50

T1 sequence (P06213 28-1370 isoform P06213-2 limits assumed): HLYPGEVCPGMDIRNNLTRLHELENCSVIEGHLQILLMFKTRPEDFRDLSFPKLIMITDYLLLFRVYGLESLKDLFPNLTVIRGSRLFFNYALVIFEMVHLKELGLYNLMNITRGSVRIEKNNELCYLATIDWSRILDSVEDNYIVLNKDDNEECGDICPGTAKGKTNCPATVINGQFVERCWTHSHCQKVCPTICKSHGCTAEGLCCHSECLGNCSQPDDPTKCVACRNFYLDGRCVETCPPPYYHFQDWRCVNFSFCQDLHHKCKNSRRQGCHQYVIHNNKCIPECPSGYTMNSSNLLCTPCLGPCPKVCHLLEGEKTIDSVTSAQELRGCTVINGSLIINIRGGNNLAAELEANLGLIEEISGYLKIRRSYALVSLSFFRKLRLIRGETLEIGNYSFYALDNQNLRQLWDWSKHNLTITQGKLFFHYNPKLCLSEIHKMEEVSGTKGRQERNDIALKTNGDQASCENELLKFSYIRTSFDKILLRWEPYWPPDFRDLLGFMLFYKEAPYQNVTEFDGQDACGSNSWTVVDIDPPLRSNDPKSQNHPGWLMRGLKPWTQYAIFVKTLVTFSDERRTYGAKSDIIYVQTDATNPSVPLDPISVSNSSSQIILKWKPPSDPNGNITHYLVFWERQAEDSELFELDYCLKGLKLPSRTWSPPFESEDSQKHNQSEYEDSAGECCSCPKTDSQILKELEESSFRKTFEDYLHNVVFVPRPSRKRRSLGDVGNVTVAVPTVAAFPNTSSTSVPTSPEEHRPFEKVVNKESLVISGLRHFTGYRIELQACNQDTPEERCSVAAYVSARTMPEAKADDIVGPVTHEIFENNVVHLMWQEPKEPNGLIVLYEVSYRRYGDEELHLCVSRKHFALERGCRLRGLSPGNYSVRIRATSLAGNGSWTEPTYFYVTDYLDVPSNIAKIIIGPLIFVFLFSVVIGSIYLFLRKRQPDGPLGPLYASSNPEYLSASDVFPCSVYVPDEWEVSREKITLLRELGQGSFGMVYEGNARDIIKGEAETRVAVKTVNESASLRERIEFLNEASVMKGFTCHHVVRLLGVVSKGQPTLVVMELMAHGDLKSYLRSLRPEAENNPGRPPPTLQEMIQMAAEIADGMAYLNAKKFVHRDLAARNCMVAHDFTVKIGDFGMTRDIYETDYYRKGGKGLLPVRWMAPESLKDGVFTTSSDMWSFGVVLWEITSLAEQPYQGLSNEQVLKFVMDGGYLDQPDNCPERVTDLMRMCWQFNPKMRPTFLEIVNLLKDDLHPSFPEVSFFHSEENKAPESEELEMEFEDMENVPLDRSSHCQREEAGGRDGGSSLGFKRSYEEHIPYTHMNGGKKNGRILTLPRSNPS
T1 sequence (P06213 763-1382 partner limits assumed): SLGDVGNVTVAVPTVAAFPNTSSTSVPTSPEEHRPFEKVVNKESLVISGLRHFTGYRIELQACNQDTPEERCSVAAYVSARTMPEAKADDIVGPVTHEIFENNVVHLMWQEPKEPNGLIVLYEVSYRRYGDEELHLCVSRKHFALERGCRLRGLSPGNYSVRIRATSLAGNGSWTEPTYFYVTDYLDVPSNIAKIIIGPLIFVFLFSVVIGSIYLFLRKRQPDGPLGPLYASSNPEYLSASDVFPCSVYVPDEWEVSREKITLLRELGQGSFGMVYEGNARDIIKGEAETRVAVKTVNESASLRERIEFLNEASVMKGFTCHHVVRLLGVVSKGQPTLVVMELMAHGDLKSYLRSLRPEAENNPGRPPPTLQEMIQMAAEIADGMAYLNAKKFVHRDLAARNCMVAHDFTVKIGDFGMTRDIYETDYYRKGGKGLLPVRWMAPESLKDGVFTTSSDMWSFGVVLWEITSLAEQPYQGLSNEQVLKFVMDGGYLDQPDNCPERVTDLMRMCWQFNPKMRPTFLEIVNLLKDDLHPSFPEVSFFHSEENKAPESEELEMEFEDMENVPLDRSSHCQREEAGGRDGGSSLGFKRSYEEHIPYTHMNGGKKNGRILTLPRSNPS
T2 sequence (P06213 28-1370 isoform P06213-2 limits assumed): as the sequence (P06213 28-1370 isoform P06213-2 limits assumed) above
T2 sequence (P06213 763-1382 partner limits assumed): as the sequence (P06213 763-1382 partner limits assumed) above

Molecule	affinity for hIR (in words) (human IR-A (holoIR-A))	Ki (human IR-A (holoIR-A))	EC50 [1, 4]	hIRA Phosph EC50 Run 1 ([1]; primary peptide set)	hIRA Phosph EC50 Run 2 ([1]; primary peptide set)	hIRA Phosph EC50 Run 3 ([1]; primary peptide set)	weaker activity than BHI in an hIR autophosphorylation assay [1]	effect on dissociation of pre-bound I125-insulin tracer from native membrane-expressed hIR (in words) [2]	EC50 [1, 5]	binding result [3]
CC[C@H](C)[C@H](NC(=O)[C@H](CCC(N)=O)NC(=O)[C@H](C)NC(=O)[C@H](Cc1c[nH]c2ccccc12)NC(=O)[C@H](CCC(=O)O)NC(=O)[C@H](CCC(=O)O)NC(=O)[C@H](CCC(=O)O)NC(=O)[C@H](CC(C)C)NC(=O)[C@H](CO)NC(=O)Cc1ccccc1)C(=O)N[C@@H](CCC(=O)O)C(=O)N[C@H]1CSSC[C@@H](C(=O)N2CCC[C@H]2C(=O)N2CCC[C@H]2C(=O)N[C@@H](CO)C(=O)N[C@@H](CCC(=O)O)C(=O)N[C@@H](CO)C(=O)N[C@@H](Cc2ccc(OC)cc2)C(=O)N[C@@H](Cc2ccc(O)cc2)C(=O)N[C@@H](CCCCN)C(=O)N[C@@H](Cc2c[nH]c3ccccc23)C(=O)N[C@@H](Cc2ccccc2)C(=O)N[C@@H](CCC(=O)O)C(=O)N[C@@H](CCCNC(=N)N)C(=O)N[C@@H](CCC(N)=O)C(=O)N[C@@H](CC(C)C)C(N)=O)NC(=O)[C@H](CCCNC(=N)N)NC(=O)CNC(=O)[C@H](Cc2ccc(O)cc2)NC(=O)[C@H](C(C)C)NC(=O)[C@H](CCC(=O)O)NC1=O [IM172] (PhAc-SLEEEWAQIECEVYGRCPPSESY(Me)YKWFERQL-NH2; disulfide 11-17)	sub-nM	0.255 nM	7.06 nM	6.352 nM	8.068 nM	6.757 nM	~2.5 fold	trend similarly, but more weakly	–	–
COc1ccc(C[C@H](NC(=O)[C@H](C)NC(=O)[C@H](CCCCN)NC(=O)[C@H](CCCCN)NC(=O)[C@@H]2CCCN2C(C)=O)C(=O)N[C@@H](Cc2ccc(O)cc2)C(=O)N[C@@H](CCCCN)C(=O)N[C@@H](Cc2c[nH]c3ccccc23)C(=O)N[C@@H](Cc2ccccc2)C(=O)N[C@@H](CCC(=O)O)C(=O)N[C@@H](CCCNC(=N)N)C(=O)N[C@@H](CCC(N)=O)C(=O)N[C@@H](CC(C)C)C(=O)N[C@@H](CCCCN)C(N)=O)cc1 [IM459C14] (Ac-PKKAY(Me)YKWFERQLK-NH2)	–	215 nM	> 1000 nM	>1000 nM	>1000 nM	>1000 nM	–	no effect	> 1000 nM	–
CC[C@H](C)[C@H](NC(=O)[C@H](CCCCN)NC(=O)C(C)(C)NC(=O)[C@H](Cc1c[nH]c2ccccc12)NC(=O)[C@H](CCC(=O)O)NC(=O)[C@H](CCC(N)=O)NC(=O)[C@H](CCC(=O)O)NC(=O)[C@H](CC(C)C)NC(=O)[C@H](CO)NC(=O)Cc1ccc(CN)cc1)C(=O)N[C@@H](CCC(=O)O)C(=O)N[C@H]1CSSC[C@@H](C(=O)N2CCC[C@H]2C(=O)N2CCC[C@H]2C(=O)N[C@@H](CCCCN)C(=O)N[C@@H](CCCCN)C(N)=O)NC(=O)[C@H](CCCCN)NC(=O)CNC(=O)[C@H](Cc2ccc(O)cc2)NC(=O)[C@H](C(C)C)NC(=O)[C@H](CCC(=O)O)NC1=O [IM459N21] (X1-SLEQEW[Aib]KIECEVYGKCPPKK-NH2; disulfide 11-17)	–	10.6 nM	> 1000 nM	>1000 nM	>1000 nM	>1000 nM	–	effect of IM459 is fully reproduced	> 1000 nM	–
CC[C@H](C)[C@H](NC(=O)[C@H](CCCCN)NC(=O)C(C)(C)NC(=O)[C@H](Cc1c[nH]c2ccccc12)NC(=O)[C@H](CCC(=O)O)NC(=O)[C@H](CCC(N)=O)NC(=O)[C@H](CCC(=O)O)NC(=O)[C@H](CC(C)C)NC(=O)[C@H](CO)NC(=O)Cc1ccc(CN)cc1)C(=O)N[C@@H](CCC(=O)O)C(=O)N[C@H]1CSSC[C@@H](C(=O)N2CCC[C@H]2C(=O)N2CCC[C@H]2C(=O)N[C@@H](CCCCN)C(=O)N[C@@H](CCCCN)C(=O)N[C@@H](C)C(=O)N[C@@H](Cc2ccc(OC)cc2)C(=O)N[C@@H](Cc2ccc(O)cc2)C(=O)N[C@@H](CCCCN)C(=O)N[C@@H](Cc2c[nH]c3ccccc23)C(=O)N[C@@H](Cc2ccccc2)C(=O)N[C@@H](CCC(=O)O)C(=O)N[C@@H](CCCNC(=N)N)C(=O)N[C@@H](CCC(N)=O)C(=O)N[C@@H](CC(C)C)C(=O)N[C@@H](CCCCN)C(N)=O)NC(=O)[C@H](CCCCN)NC(=O)CNC(=O)[C@H](Cc2ccc(O)cc2)NC(=O)[C@H](C(C)C)NC(=O)[C@H](CCC(=O)O)NC1=O [IM459] (X1-SLEQEW[Aib]KIECEVYGKCPPKKAY(Me)YKWFERQLK-NH2; disulfide 11-17)	sub-nM	0.206 nM	7.36 nM	6.534 nM	8.090 nM	–	~2.5 fold	decreases dissociation of the pre-bound insulin tracer	–	–
hIR-A^ecto (insulin receptor isoform A ectodomain, residues 1-914) (domain or fragment, human, UniProt P06213-2 28-941, looked up, written as one chain of the [αβ]2 dimer; also called hIR ectodomain) HLYPGEVCPGMDIRNNLTRLHELENCSVIEGHLQILLMFKTRPEDFRDLSFPKLIMITDYLLLFRVYGLESLKDLFPNLTVIRGSRLFFNYALVIFEMVHLKELGLYNLMNITRGSVRIEKNNELCYLATIDWSRILDSVEDNYIVLNKDDNEECGDICPGTAKGKTNCPATVINGQFVERCWTHSHCQKVCPTICKSHGCTAEGLCCHSECLGNCSQPDDPTKCVACRNFYLDGRCVETCPPPYYHFQDWRCVNFSFCQDLHHKCKNSRRQGCHQYVIHNNKCIPECPSGYTMNSSNLLCTPCLGPCPKVCHLLEGEKTIDSVTSAQELRGCTVINGSLIINIRGGNNLAAELEANLGLIEEISGYLKIRRSYALVSLSFFRKLRLIRGETLEIGNYSFYALDNQNLRQLWDWSKHNLTITQGKLFFHYNPKLCLSEIHKMEEVSGTKGRQERNDIALKTNGDQASCENELLKFSYIRTSFDKILLRWEPYWPPDFRDLLGFMLFYKEAPYQNVTEFDGQDACGSNSWTVVDIDPPLRSNDPKSQNHPGWLMRGLKPWTQYAIFVKTLVTFSDERRTYGAKSDIIYVQTDATNPSVPLDPISVSNSSSQIILKWKPPSDPNGNITHYLVFWERQAEDSELFELDYCLKGLKLPSRTWSPPFESEDSQKHNQSEYEDSAGECCSCPKTDSQILKELEESSFRKTFEDYLHNVVFVPRPSRKRRSLGDVGNVTVAVPTVAAFPNTSSTSVPTSPEEHRPFEKVVNKESLVISGLRHFTGYRIELQACNQDTPEERCSVAAYVSARTMPEAKADDIVGPVTHEIFENNVVHLMWQEPKEPNGLIVLYEVSYRRYGDEELHLCVSRKHFALERGCRLRGLSPGNYSVRIRATSLAGNGSWTEPTYFYVTDYLDVPSN	–	–	–	–	–	–	–	–	–	binds
